In this assay the test system is AGE-related proteins. The experiment in a line: Inhibition of AGE-related proteins (HSA + glucose incubation, fluorescence). In kind it is biochemical, human. The conditions noted are these: 7 days of incubation. The procedure:
Inhibition of AGE-related proteins was assayed according to the following method. First, a reaction mixture was prepared by mixing 20 mg/ml of human serum albumin (HSA) in 200 mM phosphate buffer (pH 7.4) with 500 mM [90.08 mg/ml] of glucose and 0.02% [0.2 mg/ml] sodium azide (as a preservative). The reaction mixture was incubated at 37° C. for three weeks, during which time AGE-related proteins were produced via a Maillard-type reaction. After 7, 14 and 21 days, aliquots of the reaction mixture were passed through a molecular weight sieve (PD-10 column) and equilibrated in water to remove free glucose and Schiff base. […] The latter reaction generates fluorescent by-products with fluorescence proportional to the amount of accumulated AGE-related proteins as determined with a microplate fluorescence reader (Bio-Tek FL600) at an excitation wavelength of 360 nm and an emission wavelength of 440 nm.
To aliquots of the initial reaction mixture capable of producing AGE-related endproducts as described above were added varying concentrations of extract of G. lucidum according to the present invention (i.e., hydrolyzed with acid protease of R. miehei and thereafter rendered substantially devoid of acid protease activity). […] Fluorescence was measured after 7 days of incubation in the reaction mixture as set out above.

With `N=C(N)NN` [aminoguanidine, Aminoguanidine], the “Fluorescence (at 440 nm), normalized to 100” value reads like this: (100 mM + Positive Control) 73; (200 mM + Positive Control) 45.

The values above are taken from patent publication US7524504B1, “Anti-glycation hydrolysate of G. lucidum” (priority 2008, dated 2009).
